Results taken from ChEMBL document CHEMBL1201862, “PubChem BioAssay data set” (2004).
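A five-concentration, 48-hour dose response in 96-well plates underlies each endpoint, interpolated linearly between surrounding concentrations. The concentration for 50% growth inhibition is given as GI50.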 The source made the active and inactive calls. Cut-off read from the data, not from the text of the source: active = GI50 up to about 1.1 µM and inactive = higher.

How the values were obtained:
Assay in all cases: NCI tumour cell line growth inhibition, 48 h
T47D = tested on: T47D
MDA-N = tested on: MDA-N
HOP-18 = tested on: HOP-18
M19-MEL = tested on: M19-MEL
DMS-114 = tested on: DMS-114
KM-20L2 = tested on: KM-20L2
LXFL 529 = tested on: LXFL 529
XF498 = tested on: XF498

| Compound | GI50 (T47D) | GI50 (MDA-N) | other results |
| --- | --- | --- | --- |
| C/C(=N\NC(=O)c1ccncc1)c1ccc2ccccc2c1O | 1.01 µM (active) | 4.41 µM (inactive) |  |
| O=c1cc(-c2ccccc2)nc2[nH]ccn12 | > 10 µM (inactive) | > 10 µM (inactive) |  |
| CCOC(=O)c1c(N2CCCC2)[nH]c(=O)c(C(c2cccs2)c2c(O)c(C(=O)OCC)c(N3CCCC3)[nH]c2=O)c1O | > 100 µM (inactive) | > 100 µM (inactive) |  |
| COc1cc2c(cc1OC)C(=O)/C(=C/c1ccc(N(C)C)cc1)CC2 | > 10 µM (inactive) | > 10 µM (inactive) |  |
| [O-][S+]1c2ccccc2N=C(c2ccc(Cl)cc2)CC1c1cccs1 (stereo unspecified) |  |  | GI50 (HOP-18): 29.2 µM (inactive); GI50 (M19-MEL): 17.7 µM (inactive); GI50 (DMS-114): 14.6 µM (inactive); GI50 (KM-20L2): 20.9 µM (inactive) |
| N#Cc1ccsc1Nc1ccccc1[N+](=O)[O-] | > 100 µM (inactive) | > 100 µM (inactive) |  |
| COc1ccc(N2C(=O)C3c4[nH]c5c(C)cccc5c4C4CCC(C(C)C)CC4C3C2=O)cc1 (stereo unspecified) | 5.96 µM (inactive) | 10.3 µM (inactive) |  |
| N=C1/C(=C/c2ccc(F)cc2)C(=O)N=C2SC=NN12 | > 100 µM (inactive) | 83.2 µM (inactive) |  |
| Cc1ccc(C(=O)N/N=C2/C(=O)c3c4ccccc4cc4cccc2c34)cc1 | 13.4 µM (inactive) | 37.8 µM (inactive) |  |
| O=C(Nc1ccc(F)cc1)c1cc2c(cc1Cl)Sc1nccn1S2(=O)=O | 45.9 µM (inactive) | > 100 µM (inactive) |  |
| COc1ccc2c(c1)C(=O)CC(C(N)=O)C2 (stereo unspecified) | > 100 µM (inactive) |  |  |
| C=COC(=O)N1C2CCCC(Cl)(C(C)=O)C1CC2 (stereo unspecified) | > 100 µM (inactive) | 79.1 µM (inactive) |  |
| CCC(CC)C(=O)OC[n+]1ccc(-c2c(COC(=O)NC(C)C)c(COC(=O)NC(C)C)c3n2CCC3)cc1 |  | > 100 µM (inactive) |  |
| COc1ccc2c(c1)CCCN1Cc3cc(OC)c(OC)cc3CC21 (stereo unspecified) | 20.2 µM (inactive) | > 100 µM (inactive) |  |
| O=C(c1ccc2ccccc2c1O)N1CCCCC1 | 71.3 µM (inactive) |  |  |
| CC(C)OP(=O)(OC(C)C)c1nc(-c2ccccc2)n(-c2ccc([N+](=O)[O-])cc2)n1 |  |  | GI50 (LXFL 529): > 100 µM (inactive); GI50 (M19-MEL): > 100 µM (inactive); GI50 (DMS-114): > 100 µM (inactive); GI50 (KM-20L2): > 100 µM (inactive); GI50 (XF498): > 100 µM (inactive) |
| CCN1CCC(O)(c2ccc(Oc3ccc(C)cc3)cc2)C(C(=O)c2ccc(Oc3ccc(C)cc3)cc2)C1 (stereo unspecified) | 12.8 µM (inactive) | 10.7 µM (inactive) |  |
| O=C1CCCSC(=O)N1Cc1ccccc1 | > 100 µM (inactive) | > 100 µM (inactive) |  |
| C/C(Cl)=N\OC(=O)Nc1ccccc1C(F)(F)F | 80.2 µM (inactive) | 16.4 µM (inactive) |  |
| O=C(C/C=C/c1ccccc1)c1ccccc1 | 16.9 µM (inactive) | 19.8 µM (inactive) |  |
| O=C1c2cc3c(cc2CC12Cc1cc4c(cc1C2)CCC4)CCC3 | > 100 µM (inactive) | > 100 µM (inactive) |  |
| C=CCSc1nnc2cc(CN3CCCC3)c(-c3ccc(Cl)cc3)nn12 | 20.9 µM (inactive) | 16.7 µM (inactive) |  |
| COc1ccc(C(C2=C(O)COC2=O)c2cc3c(cc2O)OCO3)cc1OC (stereo unspecified) |  | > 100 µM (inactive) |  |
| CCN(CC)CC1CCCCCCCCCCC1=O (stereo unspecified) |  |  | GI50 (LXFL 529): > 100 µM (inactive); GI50 (M19-MEL): > 100 µM (inactive); GI50 (DMS-114): > 100 µM (inactive); GI50 (KM-20L2): > 100 µM (inactive); GI50 (XF498): > 100 µM (inactive) |
| Cc1cc2c(cc1C(=O)CCC(=O)O)CC1(C2)Cc2cc(C)c(C(=O)CCC(=O)O)cc2C1 | > 100 µM (inactive) | > 100 µM (inactive) |  |
| O=C(Nc1ccc(/N=N/c2ccccc2)cc1)Sc1ccccc1C(=O)O |  |  | GI50 (LXFL 529): > 100 µM (inactive); GI50 (KM-20L2): > 100 µM (inactive) |
| Nc1ccc(C2NC(=O)Cc3c2ccc2ccccc32)cc1 (stereo unspecified) | 34.1 µM (inactive) | 67.5 µM (inactive) |  |

| Compound | GI50 (T47D) | GI50 (MDA-N) | other results |
| --- | --- | --- | --- |
| COc1ccc(-c2c(-c3ccccc3)c(C)nc3[nH]c(=S)[nH]c(=S)c23)cc1OC | 38.3 µM (inactive) | 30.1 µM (inactive) |  |
| CC(=O)O/N=C/c1c2ccccc2cc2ccccc12 | 81.7 µM (inactive) |  |  |
| COc1cc(OC)c(OC)cc1/C=C\c1ccnc2ccccc12 | 0.771 µM (active) | 0.185 µM (active) | GI50 (LXFL 529): 1.45 µM (inactive); GI50 (M19-MEL): 0.851 µM (active); GI50 (DMS-114): 0.649 µM (active); GI50 (KM-20L2): 0.948 µM (active) |
| Cc1ccc(P(c2ccc(C)cc2)c2ccc(C)cc2)cc1 | 16.3 µM (inactive) | 21.9 µM (inactive) |  |
| CSc1nc(NCc2ccccc2)c2cnn(COCCO)c2n1 | 53.7 µM (inactive) | 46.9 µM (inactive) |  |
| COC(=O)C1CCCN1C(=O)OC(C)(C)C (stereo unspecified) | > 100 µM (inactive) | > 100 µM (inactive) |  |
| Cc1cc2nc3ccccc3n2c2nc(N)ccc12 | 38.2 µM (inactive) | 49.4 µM (inactive) |  |
| CN(NC(=O)/C(=C/c1ccc(Cl)cc1)NC(=O)c1ccccc1)c1cn[nH]c(=O)c1Cl |  | > 100 µM (inactive) |  |
| O=C(CCN1CCN2c3ccccc3CCC2C1)c1ccc(F)cc1 (stereo unspecified) | 20 µM (inactive) |  |  |
| CC(C)C(=O)OCN(C)c1nc(N(C)COC(=O)C(C)C)nc(N(C)COC(=O)C(C)C)n1 | 30.3 µM (inactive) | 22.2 µM (inactive) |  |
| Cc1nn(C(=O)c2ccccc2O)c2c1C(c1ccccc1O)SC(=N)N2 (stereo unspecified) | 5.78 µM (inactive) | > 10 µM (inactive) |  |
| O=CN1CCN(c2ccc3ccc(O)nc3n2)CC1 |  | > 100 µM (inactive) |  |
| O=C(O)c1cc(Sc2ccc([N+](=O)[O-])c(C(=O)O)c2)ccc1[N+](=O)[O-] | > 100 µM (inactive) | > 100 µM (inactive) |  |
| COc1ccc(/C=C2/SC(c3c(O)ccc4ccccc34)N(NC(=O)CCCCCCCCC(=O)NN3C(=O)/C(=C\c4ccc(OC)c(OC)c4)SC3c3c(O)ccc4ccccc34)C2=O)cc1OC (stereo unspecified) | 2.19 µM (inactive) | 12.8 µM (inactive) |  |
| COc1cc(-c2cc(-c3ccccc3)nc(-c3c(OC)ccc4c(C)cc(=O)oc34)c2)cc(OC)c1OC | > 100 µM (inactive) | > 100 µM (inactive) |  |
| C=C(Br)C(C)(Cl)CCC(Br)C(C)(C)Cl (stereo unspecified) | > 100 µM (inactive) | 48 µM (inactive) |  |
| O=c1c2c3c(sc2nc2n1N=C(c1ccc([N+](=O)[O-])cc1)CS2)CCCC3 | > 100 µM (inactive) | > 100 µM (inactive) |  |
| O=C(O)CSC(CC1(c2ccc(Cl)cc2)NC(=O)CS1)c1ccc(Cl)cc1 (stereo unspecified) | 80.9 µM (inactive) | > 100 µM (inactive) |  |
| FC(F)(F)c1ccc2c(c1)N(CCCNCCN1CCOCC1)c1ccccc1S2 |  |  | GI50 (LXFL 529): 12.7 µM (inactive); GI50 (M19-MEL): 7.14 µM (inactive); GI50 (KM-20L2): 4.69 µM (inactive); GI50 (XF498): 3.81 µM (inactive) |
| O=S(=O)(O)Nc1ccc(-c2nc3ccccc3s2)cc1Cl | > 100 µM (inactive) | > 100 µM (inactive) |  |
| Nc1nc(O)c2ncn(C3OC(CO)C(O)C3O)c2n1 (stereo unspecified) |  |  | GI50 (HOP-18): 49.8 µM (inactive); GI50 (M19-MEL): 16 µM (inactive); GI50 (DMS-114): 6.15 µM (inactive); GI50 (KM-20L2): 16.8 µM (inactive) |
| Cc1nc(C)c(C(=O)NNC(=O)C[N+](C)(C)C)cc1C(=O)NNC(=O)C[N+](C)(C)C | 74.1 µM (inactive) | > 100 µM (inactive) |  |
| Cc1cn(C2CC(N(O)Cc3ccccc3)C(CO)O2)c(=O)[nH]c1=O (stereo unspecified) |  |  | GI50 (LXFL 529): > 100 µM (inactive); GI50 (M19-MEL): > 100 µM (inactive); GI50 (DMS-114): > 100 µM (inactive); GI50 (KM-20L2): > 100 µM (inactive); GI50 (XF498): > 100 µM (inactive) |
| CCC(C)[C@H]1C(=O)N=C(N)N1C(=O)OCc1ccccc1 (stereo partly specified) |  | > 100 µM (inactive) |  |
| O=C1/C(=c2\c3ccccc3n3c(=O)c4ccccc4nc23)Nc2ccccc21 [CANDIDINE] | > 26.7 µM (inactive) | 18.6 µM (inactive) |  |
| C/C1=C\C=C(\C(C)C)CC/C(C(=O)O)=C\CC/C(C)=C/CC1 [NEOCROTOCEMBRANEIC ACID] | 34.4 µM (inactive) | 28.8 µM (inactive) |  |
